According to patent US12661355B2, “Compounds and methods for inducing UCP1 expression” (The Regents of the University of California, priority 2020, dated 2026):
Blank lines part the entries; values can stand above or below the compound they belong to.

Key:
[1] = test system: Ucp1; experiment: Gene expression by qPCR in immortalized brown adipocytes; assay type: cell-based, mouse
Method: Primary brown adipocytes were isolated according to known methods. An established mouse brown adipocyte cell line was obtained from Dr. Bruce Spiegelman (Dana-Farber Cancer Institute, Boston, USA). To differentiate primary and immortalized brown adipocytes, cells were grown until confluency in DMEM containing 10% FBS, 25 mM glucose 1 mM pyruvate, 2 mM glutamine, 20 nM insulin, 1 nM T3, and antibiotics. Once confluent (day 0), differentiation was induced by supplementing the medium with 0.5 mM IBMX, 0.5 μM dexamethasone, and 0.125 mM indomethacin, for 2 days. Differentiation was continued in the original medium (without IBMX, dexamethasone and indomethacin) for 7-10 days.
TScreening was conducted at the UCLA Molecular Screening Shared Resource using automated instruments Immortalized brown adipocytes were differentiated in T225 flasks and plated in Matrix 384-well plates (26,000 cells per well) with white flat bottom (ThermoScientific) using trypsin and collagenase type II (Sigma C6885). The small molecule libraries screened were a BioMol library (204 compounds), an FDA-approved drug library (1120 compounds), a Microsource spectrum collection (2000 compounds), and a druggable compound set (8000 compounds). Molecules were delivered at 10 μM final concentration in DMSO. The screen was performed in duplicate on different days. After 18 h, luciferase activity was measured with Bright-Glo luciferase assay system and an LJL instrument. Data were normalized to the basal response (100% activity) in the presence of DMSO. Following the primary screen, 92 molecules were selected for validation and used to treat brown adipocyte cells plated in a 96-well plate overnight. RNA was extracted with an SV 96 Total RNA Isolation System (Promega). Compounds used for follow-up studies were identified using search tools available from Molport (molport.com), and ordered from the same company.
RNA levels were measured by qPCR according to known methods. Briefly, RNA was extracted with TRIzol (Invitrogen) and reverse transcribed with iScript (Bio-Rad). Real-time PCR analysis was performed with a CFX Connect (Bio-Rad).
Mouse RNA levels were measured by qPCR according to known methods. Data were normalized to B2m and Tbp reference genes. Human RNA was extracted using an RNA Mini Plus kit (Zymo) and gene expression determined by Taqman assay. The 1-step qPCR was run on a QuantStudio 12K Flex Real Time PCR System (ThermoFisher) using the following protocol: 50° C. for 5 minutes, 95° C. for 20 seconds, 40 cycles of 95° C. for 15 seconds and 60° C. for 60 seconds. Data were normalized to PPIA and PSMB2 reference genes. For global gene expression analysis, RNA isolated from brown adipocytes treated with compounds as indicated (four biological replicates) was hybridized to Illumina mouse Ref 8 V2.0 bead chips at the University of California, Los Angeles Neuroscience Genomics Core as previously described. Data were processed with GenomeStudio V2011.1 using the quantile normalization, background subtraction, and a present call of P<0.05.

[2] = test system: immortalized brown adipocytes; experiment: Cellular respiration (Seahorse) in immortalized brown adipocytes; assay type: cell-based, mouse; conditions: 10 μM
Method: Cellular respiration was measured using a Seahorse XF24 or XF96 analyzer (Agilent) following known protocols Immortalized brown adipocytes were differentiated in 6-well plates and replated in the Seahorse XF24 plates at a density of 50,000 cells per well using trypsin and collagenase type II. Cells were treated with vehicle (DMSO) or compounds for 18-24 h. Oxygen consumption rates were obtained before and after the sequential injection of 0.75 μM oligomycin, 0.5 μM FCCP, and 0.75 μM rotenone/myxothiazol. Results were normalized to total protein. For human white adipocytes, cells were cultured as described above and differentiated in XF96 microplates. DMSO or Z160 (10 μM) was added at day 17 and for 4 days. Oxygen consumption rates were measured before and after the sequential injection of 1 μM oligomycin, 1 μM FCCP, and 0.5 μM rotenone/antimycin A. For these cells, results were normalized to cell count determined by nuclei fluorescent staining with Hoescht staining imaged on Cytation 5 Imaging Reader and analysis with Gen5 software (BioTek). For both mouse and human cell lines, mitochondrial respiration was calculated by subtracting the non-mitochondrial respiration present after the last injection. Uncoupled respiration corresponds to the respiration difference between oligomycin and the last injections. Maximal respiration was determined after FCCP injection.

[3] = biological target: T1, AKAP1 and the PKA subunits (Mus musculus, UniProt O08715); experiment: Co-immunoprecipitation of PKA C-α and PKA RII-β with AKAP1; assay type: cell-based; conditions: brown adipocytes, 10 μM for 7 h
T1 construct: Immortalized brown adipocyte cells were differentiated for 10 days and treated with 10 μM AST070 or Z160 for 7 h; endogenous in cells; host or cells: immortalized mouse brown adipocytes
Method: Immortalized brown adipocyte cells were differentiated for 10 days and treated with 10 μM AST070 or Z160 for 7 h. Cells were lysed in 150 mM NaCl, 50 mM Tris pH 7.5, 1% Nonidet P40, 0.5% Na-deoxycholate containing protease and phosphatase inhibitors. Cell lysates were incubated overnight at 4° C. with 2 μl of anti-AKAP1 antibody. Twenty microliter of Protein A/G PLUS agarose beads (Santa Cruz Biotechnologies) were added for 2 h at 4° C. After a initial wash (500 mM NaCl, 50 mM Tris pH 7.5, 0.1% Nonidet P40, 0.05% Na-deoxycholate) and a final wash (10 mM Tris pH 7.5, 0.1% Nonidet P40, 0.05% Na-deoxycholate), proteins were eluted from the beads with 1× loading buffer and 2% β-mercaptoethanol, boiled for 10 min and analyzed by Western blot. To avoid detecting the IgG heavy chain, TidyBlot Western Blot reagent:HRP (Bio-Rad) at 1:100 was used as secondary antibody to reveal the PKA subunits from the co-immunoprecipitation blot.
AKAP1 is known to localize PKA to the surface of mitochondria and to relay cAMP signaling for mitochondrial functions. Inspired by this information, an inquiry as to whether treatment with the reported compounds could alter the binding of AKAP1 to mitochondria was undertaken. Analysis began by treating brown adipocytes with Z160 and isolated mitochondria at different times. […]

[4] = immortalized brown adipocytes, 10 μM

signal for PKA subunit precipitation by AKAP1 [3]: slightly enhanced
Compound: O=C(CSc1nc2ccccc2c(=O)[nH]1)Nc1ccc2c(c1)OCCO2 [AST070, N-(2,3-dihydro-1,4-benzodioxin-6-yl)-2-[(4-oxo-3,4-dihydroquinazolin-2-yl)sulfanyl]acetamide]
Ucp1 expression induction ([1]; 1 μM compared with 10 μM): lower induction | duration of effect on Ucp1 expression ([1]; 10 μM): at least 24 h | earliest time at which effect on Ucp1 expression was observed ([1]; 10 μM): 5 h | expression of markers of brown adipocyte identity, mitochondrial function and fatty acid oxidation genes [1, 4]: promoted expression | concentration of optimal Ucp1 expression induction ([1]; titration, overnight treatment): 10 µM | maximal respiration [2]: significantly elevated | mitochondrial respiration [2]: increased | uncoupled respiration [2]: increased

Compound: COc1ccc(NC(=O)CSc2nc3ccccc3c(=O)[nH]2)c(OC)c1 [Z160]
potency on Ucp1 induction compared with AST070 ([1]; 10 μM): greater potency than AST070 | expression of markers of brown adipocyte identity, mitochondrial function and fatty acid oxidation genes [1, 4]: promoted expression | expression of lipolytic enzymes (Atgl, Hsl) and FGF21 at the mRNA level ([1]; immortalized brown adipocytes, 10 μM overnight): increased expression | maximal respiration [2]: showed the same trend | mitochondrial respiration [2]: increased | uncoupled respiration [2]: increased | signal for PKA subunit precipitation by AKAP1 [3]: slightly enhanced
